In ChEMBL document CHEMBL1201862, “PubChem BioAssay data set” (2004):
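96-well plates; 48 h exposure; 5 concentrations. Endpoints by linear interpolation between flanking doses. Not reached: highest tested concentration assigned. GI50 = concentration required for 50% inhibition of growth.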 Calls of active or inactive are those of the source. Cut-off read from the data, not from the text of the source: active = GI50 up to about 1.1 µM and inactive = higher.

Tests used:
Experiment in all cases: growth of human tumour cells (NCI), 48 h
[1] = tested on: HOP-62
[2] = tested on: NCI-H23
[3] = tested on: UO-31
[4] = tested on: MDA-MB-435
[5] = tested on: NCI-H226
[6] = tested on: OVCAR-5
[7] = tested on: SF-295
[8] = tested on: NCI-H460
[9] = tested on: 786-0
[10] = tested on: SF-539
[11] = tested on: SK-MEL-5
[12] = tested on: COLO 205
[13] = tested on: MOLT-4
[14] = tested on: UACC-257
[15] = tested on: BT-549
[16] = tested on: ACHN
[17] = tested on: SK-OV-3
[18] = tested on: U-251
[19] = tested on: MDA-N
[20] = tested on: UACC-62

SMILES: Cc1cccc(CNc2[nH]cnc3nncc2-3)c1
- GI50 [1]: > 100 µM (inactive)
- GI50 [2]: > 100 µM (inactive)
- GI50 [3]: 47.4 µM (inactive)
- GI50 [4]: > 100 µM (inactive)
- GI50 [5]: 49.5 µM (inactive)
- GI50 [6]: 40.4 µM (inactive)
- GI50 [7]: > 100 µM (inactive)
- GI50 [8]: > 100 µM (inactive)
- GI50 [9]: > 100 µM (inactive)
- GI50 [10]: > 100 µM (inactive)
- GI50 [11]: 64.4 µM (inactive)
- GI50 [12]: 95.9 µM (inactive)
- GI50 [13]: 58.2 µM (inactive)
- GI50 [14]: 76.6 µM (inactive)
- GI50 [15]: > 100 µM (inactive)
- GI50 [16]: 75.7 µM (inactive)
- GI50 [17]: > 100 µM (inactive)
- GI50 [18]: > 100 µM (inactive)
- GI50 [19]: > 100 µM (inactive)
- GI50 [20]: > 100 µM (inactive)

SMILES: Cn1c(=O)c2nc(COCc3nc4c(=O)n(C)c(=O)n(C)c4[nH]3)[nH]c2n(C)c1=O
- GI50 [1]: > 100 µM (inactive)
- GI50 [2]: > 100 µM (inactive)
- GI50 [3]: > 100 µM (inactive)
- GI50 [4]: > 100 µM (inactive)
- GI50 [5]: > 100 µM (inactive)
- GI50 [6]: > 100 µM (inactive)
- GI50 [7]: > 100 µM (inactive)
- GI50 [8]: > 100 µM (inactive)
- GI50 [9]: > 100 µM (inactive)
- GI50 [10]: > 100 µM (inactive)
- GI50 [11]: > 100 µM (inactive)
- GI50 [12]: > 100 µM (inactive)
- GI50 [13]: > 100 µM (inactive)
- GI50 [14]: > 100 µM (inactive)
- GI50 [15]: > 100 µM (inactive)
- GI50 [16]: > 100 µM (inactive)
- GI50 [17]: > 100 µM (inactive)
- GI50 [18]: > 100 µM (inactive)
- GI50 [19]: > 100 µM (inactive)
- GI50 [20]: > 100 µM (inactive)

SMILES: CC(=O)NC1(NC(C)=O)C2CC(C1Cc1ccccc1)C(C)(C)C2C (stereo not given)
- GI50 [1]: > 100 µM (inactive)
- GI50 [2]: > 100 µM (inactive)
- GI50 [3]: > 100 µM (inactive)
- GI50 [4]: > 100 µM (inactive)
- GI50 [5]: > 100 µM (inactive)
- GI50 [6]: > 100 µM (inactive)
- GI50 [7]: > 100 µM (inactive)
- GI50 [8]: > 100 µM (inactive)
- GI50 [9]: > 100 µM (inactive)
- GI50 [10]: > 100 µM (inactive)
- GI50 [11]: > 100 µM (inactive)
- GI50 [12]: > 100 µM (inactive)
- GI50 [13]: > 100 µM (inactive)
- GI50 [14]: > 100 µM (inactive)
- GI50 [15]: > 100 µM (inactive)
- GI50 [16]: > 100 µM (inactive)
- GI50 [17]: > 100 µM (inactive)
- GI50 [18]: > 100 µM (inactive)
- GI50 [19]: > 100 µM (inactive)
- GI50 [20]: > 100 µM (inactive)

SMILES: O=C1NC(=O)C(CC(C(=O)C(=O)Nc2ccccc2Cl)C(=O)c2ccc3ccccc3c2)C(=O)N1 (stereo not given)
- GI50 [1]: > 100 µM (inactive)
- GI50 [2]: > 100 µM (inactive)
- GI50 [3]: 63.7 µM (inactive)
- GI50 [4]: > 100 µM (inactive)
- GI50 [5]: > 100 µM (inactive)
- GI50 [6]: > 100 µM (inactive)
- GI50 [7]: > 100 µM (inactive)
- GI50 [8]: > 100 µM (inactive)
- GI50 [9]: > 100 µM (inactive)
- GI50 [10]: > 100 µM (inactive)
- GI50 [11]: > 100 µM (inactive)
- GI50 [12]: > 100 µM (inactive)
- GI50 [13]: > 100 µM (inactive)
- GI50 [14]: > 100 µM (inactive)
- GI50 [15]: > 100 µM (inactive)
- GI50 [16]: > 100 µM (inactive)
- GI50 [17]: > 100 µM (inactive)
- GI50 [18]: > 100 µM (inactive)
- GI50 [19]: > 100 µM (inactive)
- GI50 [20]: > 100 µM (inactive)

SMILES: O=c1c2cc(I)ccc2nc(S)n1Cc1ccccc1
- GI50 [1]: 13.3 µM (inactive)
- GI50 [2]: 7.59 µM (inactive)
- GI50 [3]: 0.543 µM (active)
- GI50 [4]: 83.6 µM (inactive)
- GI50 [5]: 15.5 µM (inactive)
- GI50 [6]: 43.1 µM (inactive)
- GI50 [7]: 9.02 µM (inactive)
- GI50 [8]: 6.93 µM (inactive)
- GI50 [9]: 11.5 µM (inactive)
- GI50 [10]: 15.5 µM (inactive)
- GI50 [11]: 6.17 µM (inactive)
- GI50 [12]: > 100 µM (inactive)
- GI50 [13]: > 100 µM (inactive)
- GI50 [14]: 11.7 µM (inactive)
- GI50 [15]: 19.2 µM (inactive)
- GI50 [16]: 4.49 µM (inactive)
- GI50 [17]: 27.5 µM (inactive)
- GI50 [18]: 18.4 µM (inactive)
- GI50 [19]: 9.2 µM (inactive)
- GI50 [20]: 19.6 µM (inactive)

SMILES: CSc1nc(Br)nc2ncn(C3CC(Oc4ccc(C)cc4)C(COc4ccc(C)cc4)O3)c12 (stereo not given)
- GI50 [1]: > 100 µM (inactive)
- GI50 [2]: > 100 µM (inactive)
- GI50 [3]: 17.7 µM (inactive)
- GI50 [4]: > 100 µM (inactive)
- GI50 [5]: > 100 µM (inactive)
- GI50 [6]: > 100 µM (inactive)
- GI50 [7]: > 100 µM (inactive)
- GI50 [8]: > 100 µM (inactive)
- GI50 [9]: > 100 µM (inactive)
- GI50 [10]: 28.9 µM (inactive)
- GI50 [11]: > 100 µM (inactive)
- GI50 [12]: > 100 µM (inactive)
- GI50 [13]: > 100 µM (inactive)
- GI50 [14]: > 100 µM (inactive)
- GI50 [15]: > 100 µM (inactive)
- GI50 [16]: 28.2 µM (inactive)
- GI50 [17]: > 100 µM (inactive)
- GI50 [18]: > 100 µM (inactive)
- GI50 [19]: > 100 µM (inactive)
- GI50 [20]: > 100 µM (inactive)
